Data from US10682330B2, “Method for producing liposome encapsulating paclitaxel monoglycoside and/or docetaxel monoglycoside” (ENSUIKO SUGAR REFINING CO., LTD., priority 2012, dated 2020).
Values after ≈ are worked out from the molar mass of the structure shown.

What was measured:
[1] = Solubility in mixed solvent Cremophor EL:ethanol:PBS (pH 7.4) 12:12:76 (Test Example 1); type: physicochemical; conditions: for solubility: Cremophor EL:ethanol:PBS 12:12:76 mixed solvent, pH 7.4, aqueous with cosolvent or surfactant or cyclodextrin, ethanol, Cremophor EL, PBS pH 7.4 (12:12:76); for Concentration at which dissolved: Cremophor:ethanol:PBS (pH 7.4) 12:12:76
Protocol: Powdery gPTX and paclitaxel (hereinbelow, referred to as PTX in the Examples) produced by the method disclosed in NPL 1 were individually weighed in predetermined amounts, followed by addition of ethanol (120 μL) and mixing using a vortex. Cremophor® EL (available from Wako Pure Chemical Industries. Ltd.) (120 μL) was further mixed with each solution liquid, and then PBS (pH 7.4, 760 μL) was mixed. The solubility of each of the gPTX and PTX was confirmed.

[2] = system: SK-BR-3, human-derived breast cancer cell; assay: Anti-cancer activity, MTT assay (Test Example 3); type: cell-based; conditions: PTX, gPTX dissolved in DMSO, liposomes prepared with gPTX in 40% ethylene glycol solution; for IC50: Homo sapiens
Protocol: IC50 of each of the PTX and gPTX dissolved in DMSO, and gPTX-L and gPTX-IL prepared by using gPTX dissolved in a 40% (volume) ethylene glycol solution was measured by an MTT assay. As a test target cell, SK-BR-3, which is a human-derived breast cancer cell, was used. IT50 was also calculated. IT50 indicates the half of time required for attaining the drug concentration at which all of the cells die, and can be easily calculated based on the survival curve obtained by plotting the percentage of cell viability to the time axis.

[3] = system: SK-BR-3, human-derived breast cancer cell; assay: Anti-cancer activity, MTT assay on SK-BR-3 (Test Example 9); type: cell-based; conditions: for IC50: Homo sapiens; for IC50 / IT50: SK-BR-3; for IC50 / IC100: SK-BR3, 72 hours; for IT50: drug added at IC100
Protocol: (§1) In the same manner as in Test Example 3, anti-cancer activity was measured. SK-BR-3, which is a human-derived breast cancer cell, and HT-29, which is a colon adenocarcinoma cell, were used. Specifically, cells were seeded to a 96 well-plate at 5000 cells/well, and incubated for 24 hours. Then, PTX, gPTX, gPTX-L, and gPTX-IL were separately added at different concentrations, followed by incubation.
(§2) 72 hours later, the percentage of cell viability was calculated by an MTT assay. First, the concentration (IC50) at which 50% of the cells die was obtained from the survival curve. Subsequently, the time (IT50) at which 50% of the cells die was obtained from the survival curve. After the cells were seeded, PTX, gPTX, gPTX-L, or gPTX-IL was added at a concentration attaining IC100, which was obtained from the survival curve. Incubation was then performed for 1, 2, 6, 12, 24, 48, or 72 hours, and then medium exchange was performed. 72 hours after the drug addition, the MTT assay was performed in the same manner as in the above experiment to obtain the survival rate, and calculate the IT50 therefrom.

[4] = Encapsulation efficiency and loading efficiency in liposome by HPLC (Test Example 2); type: physicochemical; conditions: drug solution in 40% EG (1 mg/mL), comparative example
Protocol: Subsequently, after the eggplant flask was immersed in a hot bath at 60° C. for five minutes, a gPTX solution (1 ml) (Cremophor:ethanol:ultra-pure water=12:12:76, volume ratio) adjusted to a concentration of 20 mg/ml, or a PTX solution (Cremophor:ethanol:ultra-pure water=12:12:76, volume ratio) at a concentration of 2 mg/ml was added thereto to dissolve the lipid film, thus preparing a multilamellar vesicle (MLV).
In a comparative example, the above-mentioned 1 mg/ml gPTX solution (10 mM phosphate buffer containing 40% (volume) ethylene glycol) was used in place of the 20 mg of gPTX solution to encapsulate gPTX in a liposome.
The efficiency of paclitaxel monoglycoside encapsulated in the obtained liposome or immunoliposome was calculated as follows. First, the standard curve of each of the gPTX and PTX was obtained. […]
Next, 0.1% Triton X-100 ( 1/10 volume) was added to a prepared liposome, and the liposome was broken by sonication. Thereafter, the solution (10 μl) was measured by HPLC, and the encapsulated drug amount was obtained using the standard curve. […]
Using the following formulae (1) and (2), the encapsulation efficiency (EE) and loading efficiency (LE) were calculated based on the obtained drug amount. […]

[5] = system: HT-29, colon adenocarcinoma cell; assay: Anti-cancer activity, MTT assay on HT-29 (Test Example 9); type: cell-based; conditions: for IC100 / IC50: 72 hours; for IC50: Homo sapiens; for IT50: drug added at IC100
Protocol: as §1, §2

[6] = Solubility in 10 mM phosphate buffer containing 10 to 40% ethylene glycol (Test Example 1); type: physicochemical; conditions: aqueous with cosolvent or surfactant or cyclodextrin
Protocol: In all cases, gPTX was mixed so that the concentration became 1 mg/mL.

[7] = system: HT-29 tumor; assay: In vivo anti-cancer activity, tumor volume (Test Example 11); parameters: species or system ICR-nu/nu mouse; conditions: tail vein two times, interval 3 hours; total gPTX 150 mg/kg, trastuzumab 200 mg/kg; N=4
Text: (§3) HT-29 cells were subcutaneously administered at 3.0×10^6 cells to each ICR-nu/nu mouse (male, 5 weeks old). When the tumor volume became about 50 to 200 mm^3, the above gPTX, the gPTX-L produced in Test Example 7, the gPTX-IL produced in Test Example 9, trastuzumab, the liposome (empty L) encapsulating no gPTX and having no antibody (trastuzumab) produced in Test Example 9, the liposome (empty IL) encapsulating […] and having an antibody (trastuzumab) produced in Test Example 9, a CEP buffer, or PBS was administered via tail vein two times at an interval of 3 hours (N=4). The dose per each was 200 μl/20 g. The total dose of gPTX was 150 mg/kg, and the total dose of trastuzumab was 200 mg/kg. The tumor volume shift after administration was observed. […] The tumor volume was calculated from the formula (3) below. Tumor volume=(tumor smallest diameter^2×tumor longest diameter)/2 (3)

[8] = system: BALB/c mouse; conditions: in vivo
Protocol: Specifically, gPTX, gPTX-L, a CEP buffer (Cremophor:ethanol:ultra-pure water=12:12:76; volume ratio), or PBS was administered via tail vein to each BALB/c mouse (female, 6 weeks old) two times with an interval of three hours (N=4). The dose per each was 200 μl/20 g. The total dose of gPTX was 150 or 100 mg/kg in view of gPTX. Observation over time was performed during and after the administration.

[9] = system: ICR-nu/nu mouse; assay: Body weight shift and survival in HT-29 bearing mice (Test Example 11); type: in vivo; conditions: total dose of gPTX 150 mg/kg; N=4
Text: as §3
The body weight shift and the survival rate in each group were measured. FIGS. 6 to 9 show the results.

| Structure (SMILES) | solubility ([1]; Concentration 2 mg/ml) | solubility ([1]; Concentration 10 mg/ml) | solubility ([1]; Concentration 20 mg/ml) | Concentration at which dissolved [1] | IC50 [2] | IT50 [2] | IC50 [3] | IC100 [3] | IT50 [3] | IC100 [5] | IC50 [5] | IT50 [5] | also measured |
| --- | --- | --- | --- | --- | --- | --- | --- | --- | --- | --- | --- | --- | --- |
| CC(=O)O[C@H]1C(=O)[C@@]2(C)[C@H]([C@H](OC(=O)c3ccccc3)[C@]3(O)C[C@H](OC(=O)[C@H](O)[C@@H](NC(=O)c4ccccc4)c4ccccc4)C(C)=C1C3(C)C)[C@]1(OC(C)=O)CO[C@@H]1C[C@@H]2O [PTX, paclitaxel] | > 2000 µg/mL | < 3000 µg/mL | < 3000 µg/mL | about 2 mg/ml | 5.91 nM | 15.9 h | 5.5 ± 1.3 nM | 30 nM | 9.8 h | 10 nM | 1.3 ± 0.5 nM | 11.9 h | solubility ([1]; Concentration 3 mg/ml): < 3000 µg/mL; EE (encapsulation efficiency) [4]: not encapsulated in the liposome |
| CC(=O)O[C@H]1C(=O)[C@@]2(C)C([C@H](OC(=O)c3ccccc3)[C@@]3(O)CC1=C(C)C(OC(=O)[C@H](O)[C@@H](NC(=O)c1ccccc1)c1ccccc1)C3)[C@]1(OC(C)=O)CO[C@@H]1C[C@H]2OC(=O)COC1OC(CO)C(O)C(O)C1O (stereo partly drawn) [gPTX, 7-α-glucosyloxyacetylpaclitaxel] | > 20000 µg/mL | > 20000 µg/mL | > 20000 µg/mL | 20000 µg/mL | 46 nM | 18.7 h | 18.9 ± 1.1 nM | 100 nM | 8.3 h | 50 nM | 11 ± 0.8 nM | 9.6 h | solubility ([6]; Ethylene glycol (EG) 10%, 10 mM phosphate buffer, read-out: Solubility of 1 mg/mL gPTX): < 1000 µg/mL; solubility ([6]; Ethylene glycol (EG) 20%, 10 mM phosphate buffer, read-out: Solubility of 1 mg/mL gPTX): < 1000 µg/mL; solubility ([6]; Ethylene glycol (EG) 30%, 10 mM phosphate buffer, read-out: Solubility of 1 mg/mL gPTX): < 1000 µg/mL; solubility ([6]; Ethylene glycol (EG) 40%, 10 mM phosphate buffer, read-out: Solubility of 1 mg/mL gPTX): > 1000 µg/mL; solubility ([6]; PBS containing 40% (volume) ethylene glycol, read-out: Solubility of gPTX): ~1000 µg/mL (≈ 956 µM); solubility ([1]; Concentration 30 mg/ml): < 30000 µg/mL; Tumor growth inhibition effect (tumor volume) [7]: remarkably excellent anti-tumor growth inhibition effect; Body weight change (FIG. 4) [8]: significant body weight loss; Mice dead one day after the administration (FIG. 3) [8]: three; Body weight shift [9]: remarkable body weight loss; Deaths after administration [9]: two mice died in three hours after the administration, and one died one week after the administration |
